# Results as given in US20120108669A1, “METHOD OF TREATING SLEEP DISORDERS USING EPLIVANSERIN” (SANOFI-AVENTIS, priority 2008, published 2012).
# Experiments:
# [1] = system: patients with chronic (primary) insomnia characterized by sleep maintenance difficulties; assay: Study EFC6220: 6-week polysomnography (PSG) study of sleep maintenance; assay type: in vivo, human; conditions: for PSG-NAW (number of awakenings) LS mean: p<0.0001
# Source text: (§1) The Phase 3 program of development of eplivanserin in the treatment of patients with chronic (primary) insomnia characterized by sleep maintenance difficulties consisted of 3 randomized, double-blind (DB), placebo-controlled, efficacy and safety studies designed to assess the efficacy of eplivanserin on sleep maintenance either using polysomnography (PSG) recordings (6-week study EFC6220) or patient-reported outcome (12-week studies LTE6217 and LTE6262) collected daily on sleep questionnaires.
# (§2) They were all double-blind (DB), randomized, placebo-controlled studies. In all studies, treatment period was preceded by a one week, placebo run-in period, designed to check selection criteria for insomnia based on patient reported sleep parameters collected on the daily sleep questionnaires (Studies LTE6217, and LTE6262) or based on PSG recordings during two screening nights in a sleep laboratory (Study EFC6220). Treatment period was followed by a placebo run-out period of 2 weeks designed to assess the effect of abrupt treatment discontinuation.
# Study EFC6220 was designed to measure the pharmacodynamic activity of eplivanserin on sleep maintenance using PSG recordings in a sleep laboratory. Polysomnograms were recorded in standard conditions during 8 hours in bed.
# [2] = system: patients with chronic (primary) insomnia characterized by sleep maintenance difficulties; assay: Long-term studies LTE6217 and LTE6262 together: patient global impression, daytime function, residual effects; assay type: in vivo, human
# Source text: as §1, §2
# (§3) Studies LTE6217 and LTE6262 measured the efficacy of eplivanserin in real life conditions of use at home by collecting daily sleep parameters reported by patients through an Interactive Voice Response System (IVRS).
# [3] = system: healthy male subjects; assay: Example 2: single-dose cross-over study of sleep (EEG) and daytime functioning; assay type: in vivo, human
# Method: The effects of eplivanserin or pharmaceutically acceptable salts or esters thereof on sleep and daytime functioning in healthy subjects were examined.
# Double-blind, randomized, placebo (PBO)-controlled, 4-period, cross-over study with a 1-2-week washout between each period. Single oral doses of eplivanserin or pharmaceutically acceptable salts or esters thereof 1, 10 and 40 mg and PBO were given to healthy male subjects in either the evening (pm) or the morning (am; n=16). Sleep was assessed objectively using an EEG and subjectively by Leeds Sleep Evaluation Questionnaire. Next-day psychomotor function, memory and arousal were measured objectively via Critical Flicker Fusion (CFF), Choice Reaction Time, Compensatory Tracking and Sternberg memory-scanning tasks. Subjective assessment of drug activity was performed using Line Analogue Rating Scales.
# [4] = system: patients exposed to eplivanserin; assay: Example 3: diverticulitis in pooled phase 2 and 3 trials; assay type: in vivo, human; conditions: for Incidence of Diverticulitis by sub-group: all eplivanserin doses
# Source text: Hereafter are the observations made in pooled phase 2 and 3 trials with eplivanserin or pharmaceutically acceptable salts or esters thereof.
# The majority of patients were non-elderly, females, and Caucasian with a median age between 47 and 51 years across treatment groups.
# [5] = system: patients with chronic (primary) insomnia characterized by sleep maintenance difficulties; assay: Study LTE6262: 12-week patient-reported sleep parameters (daily sleep questionnaire, IVRS); assay type: in vivo, human; conditions: 5 mg/day; for Quality of sleep Difference from Placebo LS Mean / Refreshing QoS Difference from Placebo LS Mean / pr-NAW Difference from Placebo LS Mean / Quality of sleep LS Mean / Refreshing QoS LS Mean / pr-NAW LS Mean: MMRM, ITT; for Quality of sleep LS Mean / Refreshing QoS LS Mean / pr-NAW LS Mean: mean change
# Source text: as §1, §2, §3
# In these tables, values are given as an amount of time expressed in minutes and seconds (mm:ss).
# [6] = system: patients with chronic (primary) insomnia characterized by sleep maintenance difficulties; assay: Study LTE6217: 12-week patient-reported sleep parameters (daily sleep questionnaire, IVRS); assay type: in vivo, human; conditions: 5 mg/day, MMRM, ITT; for Quality of sleep LS Mean (SEM) / Refreshing quality of sleep LS Mean (SEM) / pr-NAW LS Mean (SEM): mean change
# Source text: as §1, §2
# Studies LTE6217 and LTE6262 measured the efficacy of eplivanserin in real life conditions of use at home by collecting daily sleep parameters reported by patients through an Interactive Voice Response System (IVRS). […]
# [7] = cited from earlier work
# [8] = 5 mg/day, in comparison with placebo, after 6 and 12 weeks
# [9] = single oral 1, 10 and 40 mg, morning or evening, P=0.0001 vs PBO
# [10] = all Phase 2-3 studies, all doses
smiles,measurement,setting,value
"CN(C)CCO/N=C(/C=C/c1ccc(O)cc1)c1ccccc1F [eplivanserin, (1Z, 2E)-1-(2-fluorophenyl)-3-(4-hydroxyphenyl)-prop-2-en-1-one-O-(2-dimethylaminoethyl)oxime]",sleep onset (PSG-LPS and pr-SOL),[1]; 5 mg,did not affect sleep onset
same,percentage of time spent in sleep Stages 3&4 (slow wave sleep),[1]; 5 mg/day compared with placebo,increased percentage of time
same,sleep Stage 1,[1]; 5 mg/day compared with placebo,decrease of Stage 1
same,PSG-NAW (number of awakenings) LS mean,"[1]; Week 3, 5 mg",−1.74
same,PSG-WASO (Wake after sleep onset),"[1]; Week 3 and Week 6, difference with placebo did not reach statistical significance at Week 6",decreasing PSG-WASO
same,PSG-NAW (number of awakenings) LS mean,"[1]; Week 6, 5 mg",−1.82
same,number of brief awakenings (<1 min),[1]; compared to placebo,decreased the number of brief awakenings
same,QoS (quality of sleep),[1]; in vivo,improved
same,REM (rapid eye movement) sleep,[1]; in vivo,not affected
same,SWS/WASO+Stage 1 index,[1]; in vivo,increase of SWS/WASO+Stage 1 index
same,PGI-item 1,[2]; [8],aid to sleep
same,PGI-item 3,[2]; [8],increasing duration of sleep
same,improvement of activities related to work and hobby activities,"[2]; after 12 weeks, Study LTE6262 and meta-analysis of LTE6262 and LTE6217, compared with placebo",positive effect
same,"""sleepiness in the morning"" and ""ability to concentrate""","[2]; reported by insomniac patients, compared with placebo",significantly favourable effect
same,potential for residual effects (next-day impairment),[2]; safety analyses,devoid of next-day impairment
same,Sleep efficiency (time asleep/time in bed),[3]; P=0.0004 vs PBO,significantly improved
same,number of awakenings ≧120 s,[3]; P=0.03 vs PBO,significantly reduced
same,CFF threshold detection,[3]; at all doses,slight decrease
same,Times to sleep onset and total sleep time,[3]; in vivo,unaffected
same,treatment-emergent AEs,[3]; in vivo,No serious or severe treatment-emergent AEs were reported
same,SWS,[3]; regardless of dosage or dose timing (morning or evening),doubled
same,"next-day objective psychomotor function or memory tests, subjective ratings of 'hangover' or CNS sedation","[3]; regardless of dose, or am or pm administration",no detrimental effects
same,'deep'/slow-wave sleep (SWS) time,[3]; [9],significantly increased
same,Stage 2 (light) sleep,[3]; [9],decreased
same,final outcome of diverticulitis,[4]; 30 patients,"Recovery was reported as final outcome in all patients, except 2"
same,median time to onset of diverticulitis,[4]; 30 patients with diverticulitis,58 days
same,Incidence of Diverticulitis by sub-group,[4]; Age groups (years): <65,18/2636 (0.7%) (0.41 to 1.08)
same,Incidence of Diverticulitis by sub-group,[4]; Age groups (years): >=65,12/394 (3.0%) (1.58 to 5.26)
same,Incidence of Diverticulitis by sub-group,[4]; BMI (kg/m2): 25-30,17/1292 (1.3%) (0.77 to 2.10)
same,Incidence of Diverticulitis by sub-group,[4]; BMI (kg/m2): <25,6/1121 (0.5%) (0.20 to 1.16)
same,Incidence of Diverticulitis by sub-group,[4]; BMI (kg/m2): >=30,7/617 (1.1%) (0.46 to 2.32)
same,Incidence of Diverticulitis by sub-group,[4]; Concomitant drugs that inhibit prostaglandin synthesis: No,15/2161 (0.7%) (0.39 to 1.14)
same,Incidence of Diverticulitis by sub-group,[4]; Concomitant drugs that inhibit prostaglandin synthesis: Yes,15/869 (1.7%) (0.97 to 2.83)
same,Incidence of Diverticulitis by sub-group,[4]; Concomitant opioids: No,27/2999 (0.9%) (0.59 to 1.31)
same,Incidence of Diverticulitis by sub-group,[4]; Concomitant opioids: Yes,3/31 (9.7%) (2.04 to 25.75)
same,Incidence of Diverticulitis by sub-group,"[4]; Creatinine clearance at baseline (ml/min): Mild: [50, 80[",11/669 (1.6%) (0.82 to 2.92)
same,Incidence of Diverticulitis by sub-group,[4]; Creatinine clearance at baseline (ml/min): Moderate/Severe: <50,1/44 (2.3%) (0.06 to 12.02)
same,Incidence of Diverticulitis by sub-group,[4]; Creatinine clearance at baseline (ml/min): Normal: >=80 or Missing,18/2317 (0.8%) (0.46 to 1.23)
same,Incidence of Diverticulitis by sub-group,[4]; Gender: Female,18/1651 (1.1%) (0.65 to 1.72)
same,Incidence of Diverticulitis by sub-group,[4]; Gender: Male,12/1379 (0.9%) (0.45 to 1.52)
same,Incidence of Diverticulitis by sub-group,[4]; Medical history of constipation: No,27/2943 (0.9%) (0.61 to 1.33)
same,Incidence of Diverticulitis by sub-group,[4]; Medical history of constipation: Yes,3/87 (3.4%) (0.72 to 9.75)
same,Incidence of Diverticulitis by sub-group,[4]; Medical history of diverticular disease (includes diverticulitis): No,18/2984 (0.6%) (0.36 to 0.95)
same,Incidence of Diverticulitis by sub-group,[4]; Medical history of diverticular disease (includes diverticulitis): Yes,12/46 (26.1%) (14.27 to 41.13)
same,Incidence of Diverticulitis by sub-group,[4]; Medical history of diverticulitis: No,23/3005 (0.8%) (0.49 to 1.15)
same,Incidence of Diverticulitis by sub-group,[4]; Medical history of diverticulitis: Yes,7/25 (28.0%) (12.07 to 49.39)
same,Incidence of Diverticulitis by sub-group,[4]; Race: Asian/Oriental/Other,0/138
same,Incidence of Diverticulitis by sub-group,[4]; Race: Black,1/162 (0.6%) (0.02 to 3.39)
same,Incidence of Diverticulitis by sub-group,[4]; Race: Caucasian,29/2730 (1.1%) (0.71 to 1.52)
same,exposure adjusted incidence rate of diverticulitis,[4]; [10],3.32 patients with an event per 100 patient-years
same,patients exposed who developed diverticulitis,[4]; [10],1%
same,patients exposed who developed diverticulitis,"[4]; all Phase 2-3 studies, all doses, n/N",30/3030
same,cumulative incidence rate of diverticulitis,"[4]; at Week 24, all doses",about 1.6%
same,time of diverticulitis events after treatment initiation,[4]; clinical trials in patients with sleep disorders,two months on average
same,"duration of diverticulitis episodes, mean",[4]; from the onset of the event,23 days
same,"duration of diverticulitis episodes, median",[4]; from the onset of the event,17 days
same,total episodes of diverticulitis,[4]; in the 30 patients,39
same,non-serious cases of diverticulitis,[4]; of 30 patients,23
same,serious cases of diverticulitis,[4]; of 30 patients,7
same,episodes of diverticulitis of mild intensity,[4]; per Investigator's judgment,Three out of 39
same,episodes of diverticulitis of moderate intensity,[4]; per Investigator's judgment,26/39
same,episodes of diverticulitis of severe intensity,[4]; per Investigator's judgment,10/39
same,persistence of effect on sleep maintenance (pr-WASO),[5]; observed from Day 1,persisted up to 1 year of treatment
same,Quality of sleep Difference from Placebo LS Mean,[5]; Week 6,−0.13
same,Refreshing QoS Difference from Placebo LS Mean,[5]; Week 6,−0.13
same,pr-NAW Difference from Placebo LS Mean,[5]; Week 6,−0.34
same,Quality of sleep LS Mean,[5]; Week 6,−0.58
same,Refreshing QoS LS Mean,[5]; Week 6,−0.55
same,pr-NAW LS Mean,[5]; Week 6,−0.99
same,Quality of sleep Difference from Placebo LS Mean,[5]; Week 12,−0.14
same,Refreshing QoS Difference from Placebo LS Mean,[5]; Week 12,−0.15
same,pr-NAW Difference from Placebo LS Mean,[5]; Week 12,−0.35
same,Quality of sleep LS Mean,[5]; Week 12,−0.63
same,Refreshing QoS LS Mean,[5]; Week 12,−0.60
same,pr-NAW LS Mean,[5]; Week 12,−1.08
same,Quality of sleep Difference from Placebo LS Mean,[6]; Week 6,−0.11
same,Refreshing quality of sleep Difference from Placebo LS Mean,[6]; Week 6,−0.11
same,pr-NAW Difference from Placebo LS Mean,[6]; Week 6,−0.39
same,Quality of sleep LS Mean (SEM),[6]; Week 6,−0.65 (0.02)
same,Refreshing quality of sleep LS Mean (SEM),[6]; Week 6,−0.62 (0.02)
same,pr-NAW LS Mean (SEM),[6]; Week 6,−1.16 (0.04)
same,Quality of sleep Difference from Placebo LS Mean,[6]; Week 12,−0.10
same,Refreshing quality of sleep Difference from Placebo LS Mean,[6]; Week 12,−0.09
same,pr-NAW Difference from Placebo LS Mean,[6]; Week 12,−0.33
same,Quality of sleep LS Mean (SEM),[6]; Week 12,−0.73 (0.03)
same,Refreshing quality of sleep LS Mean (SEM),[6]; Week 12,−0.70 (0.03)
same,pr-NAW LS Mean (SEM),[6]; Week 12,−1.27 (0.04)
same,half-life time,[7]; average value,50 h
same,absorption (well absorbed),[7]; in vivo,> 70%
